Experimental findings from US20160175249A1, “Liposomes Containing Oligopeptide Fragments of Myelin Basic Protein, a Pharmaceutical Composition and a Method for Treatment of Multiple Sclerosis” (LIPOXEN TECHNOLOGIES LIMITED, priority 2009, published 2016) are described below.

One assay relates to EAE-induced DA rats. In words: EAE-induced DA rat model, paralysis score and mortality (DA-EAE-28-01, Example 12). To be noted: daily s.c. injection, 6 total. Type of assay: in vivo. How it is done: Each of the seven formulations being evaluated was provided as a lyophilized powder and stored at 4° C. Rehydration of each daily group dose was done with water for injection according to Table 6. MBP peptide formulations were re-suspended in water for injection (Cure Medical) and copaxone (Teva LTD) was diluted with Saline to a final concentration of 150 μg/mL. Each subject animal was administered the test formulation for 6 consecutive days by subcutaneous injection.
9 week old Dark Agouti (DA) female rats (Harlan Laboratories, Inc.), weighing between 125 and 145 grams were used as the test subjects. The health status of the animals used in this study was examined on arrival. Only animals in good health were acclimatized to laboratory conditions and were used in the study. Animals were provided Protein Rodent Diet (Teklad) ad libitum and free access to drinking water. Animals were housed in a controlled environment at between 20° C. and 24° C. with a relative humidity of 30-70% and a 12 hr light/12 hr dark cycle. Animals were randomly assigned to their respective test group. This study was performed following the review by the Committee for Ethical Conduct in the Care and Use of Laboratory Animals of the Assaf Harofeh medical center, Beer Yaakov, Ethical Committee number: 68/2009.
For induction of EAE, rats were intradermally injected at the base of the tail with a total volume of 200 μl of inoculum containing 50 μg of MBP(63-81) (ANASPEC), in saline mixed (1:1) with CFA, (IFA, Sigma) and 1 mg Mt (strain H37 RA; Difco Laboratories, Detroit, Mich.).
The rats were evaluated up daily starting 24 hours after immunization. […]
7-10 days post EAE induction, 54 animals were divided to 9 groups (6 rats in each), and blood was collected from 2 rats of each group before the initiation of the treatment. […] The animals were maintained and evaluated until day 28th post EAE-induction. […]
Animals were observed individually and clinical signs were recorded once daily during all study periods. […] The body weight of each animals was determined daily during all study periods. […]

In assay [1] the test system is experimental autoimmune encephalomyelitis (EAE) in DA rats. In words: EAE in DA rats treated with MBP peptides in mannosylated SUV liposomes (Example 10). Type of assay: in vivo. How it is done: All animal studies were carried out in animal facilities of Assaf Harofeh Medical Center (Zerifin, Israel) using standard approved practices for animal care. Induction of EAE was performed in 8-9 weeks Dark Agouti (DA) female rats. Briefly, rats were injected intradermally at the base of the tail with a total volume of 200 μl of inoculum, containing […] of MBP(63-81) (ANASPEC), in saline mixed (1:1) with CFA, (incomplete Freund's adjuvant (IFA), Sigma), and 1 mg MT (strain H37 RA; Difco Laboratories, Detroit, Mich.). Animals developing symptoms of MS were included to the study. Rats were treated with different liposomes formulations (Table 3), copaxone, or placebo (vehicle) under similar conditions for 6 days. All formulations were administrated by one subcutaneous injection per day. Animals were followed up till day 28th post EAE induction. Clinical signs score was performed daily during all study periods. Score gradation was the following: 0—Normal 1—tail weakness, 2—hind leg weakness or paralysis, 3—hind leg paralysis, dragging hind limbs, 4—complete paralysis, unable to move, 5—death.
Liposomes were assembled from a mixture of egg phosphatidylcholine (PC) and one molar percent mannosylated DOG (ManDOG) (Durova OM, supra). Assembly of SUV liposomes was performed as illustrated in FIG. 3: (i) formation of irregular lipid layers during evaporation of organic solvent, followed by re-hydration leading to the multi-layer multilamellar vesicle (MLV) liposomes formation; (ii) high-pressure homogenization resulting in formation of empty SUV; (iii) freeze drying of SUV liposomes with peptides—at this stage peptides are located between collapsed SUV liposomes; and (iv) encapsulation of peptides during second re-hydration into the SUV liposomes with an average diameter of approximately 60-100 nm, containing 1.0% mannose residues on their surface. Four formulations were used for this study: each B cell epitope MBP peptide (MBP1, MBP2, and MBP3) individually and a 1:1:1 mixture (by mass) of all three peptides.
Small unilamellar vesicles (SUV) were prepared from egg phosphatidylcholine (PC) and mannosylated DOG (Espuelas S. et al., Synthesis of an amphiphilic tetraantennary mannosyl conjugate and incorporation into liposome carriers, 2003 Bioorg Med Chem Lett., August 4; 13(15):2557-60, the contents of which are hereby incorporated by reference in their entirety for all purposes) (1:100 molar ratio) by high pressure homogenization (Durova OM, supra). Briefly, lipid mixture (100 mg/ml) in CHCl3 was dried under vacuum, further re-suspended in Milli-Q water to a final lipid concentration 50 mg/ml, followed by high-pressure homogenization (20,000 psi). Resulting SUV were mixed with peptides (lipid to peptide ratio 330:1) together with excess sugar (lactose to lipid ratio 3:1) with subsequent freeze-drying. Following rehydration under controlled conditions, the resulting SUV liposomes were washed by centrifugation to remove non-incorporated materials. The washed pellets were re-suspended in PBS to the required dose volume. Peptide incorporation was estimated on the basis of reversed-phase HPLC using linear gradient of acetonitrile applied on C18 column. The z-average diameter and zeta potential of liposomes were measured on a Brookhaven ZetaPlus zetasizer at 25° C. by diluting […] of the dispersion to the required volume with 1 mM PBS or appropriate media.
To test the therapeutic potential of the four formulations, DA rates presenting with induced EAE were subcutaneously injected with one of the four mannosylated liposomal formulations, copaxone (positive control), free (un-encapsulated) MBPI peptide (negative control), and empty mannosylated liposomes (vehicle control; Table 3).
Treatment of each rat was initiated at the first sign of EAE clinical manifestation. […]

Assay [2] has as its target polyclonal serum anti-MBP antibodies isolated from immunized DA rats. In words: Surface plasmon resonance of autoAb binding to biotinylated MBP peptides and MBP. The settings on record: SPR, BiaCore T-200, antibodies 50 μg/ml, immobilized peptide or MBP; for Kd: read-out: effective dissociation constant. How it is done: To quantify autoAb recognition of the identified MBP epitopes, and to confirm their sequence in vitro, the affinity of polyclonal serum anti-MBP antibodies isolated from immunized DA rats for biotinylated MBP peptides was determined by surface plasmon resonance (FIG. 2B). The effective dissociation constant of the full-length MBP protein (1.5×10^−8) was determined to be nanomolar, as were the dissociation constants for MBP encephalitogenic (9.6×10^−9) and C-terminal (8.4×10^−9) fragments, verifying their identity as major B cell epitopes.
All surface plasmon resonance measurements were performed on BiaCore T-200 apparatus (GE Healthcare, US). Biotinylated MBP peptides (50 μg/ml) (listed on FIG. 2) and MBP were immobilized on SA and CM-5 chips respectively. All procedures were performed according manufacture's recommendations. Flow rate of HBS-EP buffer was kept as 10 μl/min during all measurements. Antibodies (50 μg/ml) were tested on both chips with standard association/dissociation time 300/300 s. Dissociation constants were calculated using BiaCore T-200 Evaluation Software 1.0.

Consider “GGDRGAPKRGSGKDSHH (MBP peptide) [MBP1, myelin basic protein fragment MBP(46-62), free un-encapsulated peptide]”, for which, in the assay on EAE-induced DA rats (54 EAE induced DA rats, peptide dose 50 μg (mixtures 150 μg), deaths/N), the “Mortality Rate” value was 1/6. The “efficacy, overall disease score” value with EAE-induced DA rats (comparison between groups) is recorded as “comparable”. The “mean disease score course (FIG. 4)” value in assay [1] (6 daily s.c. injections from first clinical sign) is recorded as “did not provide any beneficial effects”. The Mortality in assay [1] (one s.c. injection per day, 6 injections, deaths/N) is listed as 1/15. In addition, the “Median Cumulative Disease Score” value in assay [1] (one s.c. injection per day, 6 injections, doses per Table 3) is 19.5. In addition, in assay [1] (one s.c. injection per day, 6 injections, doses per Table 3, score 0-5), the “Median Maximal Disease Score (IQR)” value is recorded as 3 (0.5)^2.

For “IFKLGGRDSRSGSPMARR [C-terminal fragment]”, the Kd in assay [2] is 8.4 nM.

As to “QDENPVVHFFKNIV [MBP encephalitogenic fragment]”, in assay [2], the Kd turned out to be 9.6 nM.

For the molecule “MDHARHGFLPRH [biotinylated MBP fragment]”, the effective dissociation constant result in assay [2] is reported as “not detectable”.

B1: full-length MBP protein: myelin basic protein, 18.5 kDa, 171 amino acids (protein)
chain: MASQKRPSQRHGSKYLATASTMDHARHGFLPRHRDTGILDSIGRFFGGDRGAPKRGSGKDSHHPARTAHYGSLPQKSHGRTQDENPVVHFFKNIVTPRTPPPSQGKGRGLSLSRFSWGAEGQRPGFGYGGRASDYKSAHKGFKGVDAQGTLSKIFKLGGRDSRSGSPMARR
modifications: MBP splice isoforms
notes: myelin basic protein, 18.5 kDa, 171 amino acids
For the molecule B1, the Kd in assay [2] came to 15 nM.
